Results on 14 compounds are retold here after ChEMBL document CHEMBL3091356, “Salen and tetrahydrosalen derivatives act as effective inhibitors of the tumor-associated carbonic anhydrase XII--a new scaffold for designing isoform-selective inhibitors” (Bioorg Med Chem Lett, 2013).

The target in one test is Carbonic anhydrase 12 (Homo sapiens, UniProt O43570). The experiment in a line: Inhibition of human recombinant carbonic anhydrase 12-mediated CO2 hydration preincubated for 15 mins by stopped-flow assay.
Chain of Carbonic anhydrase 12 (O43570 whole entry): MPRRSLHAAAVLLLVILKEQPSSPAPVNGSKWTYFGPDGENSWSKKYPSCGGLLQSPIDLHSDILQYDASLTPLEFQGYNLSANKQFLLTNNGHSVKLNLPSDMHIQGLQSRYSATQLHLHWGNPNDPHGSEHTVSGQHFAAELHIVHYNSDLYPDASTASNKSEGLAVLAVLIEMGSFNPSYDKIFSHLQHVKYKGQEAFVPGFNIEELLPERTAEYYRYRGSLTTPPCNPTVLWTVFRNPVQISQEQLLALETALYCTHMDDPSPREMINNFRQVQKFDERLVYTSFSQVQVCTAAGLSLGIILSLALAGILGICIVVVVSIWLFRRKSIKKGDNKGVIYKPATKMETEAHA
Another test addresses Carbonic anhydrase 9 (Homo sapiens, UniProt Q16790).
For another test, the target named is Carbonic anhydrase 2 (Homo sapiens, UniProt P00918). Description: Inhibition of human recombinant carbonic anhydrase 2-mediated CO2 hydration preincubated for 15 mins by stopped-flow assay.
The target in the next test is Carbonic anhydrase 1 (Homo sapiens, UniProt P00915). Description: Inhibition of human recombinant carbonic anhydrase 1-mediated CO2 hydration preincubated for 15 mins by stopped-flow assay.
Chain of Carbonic anhydrase 1 (P00915 whole entry): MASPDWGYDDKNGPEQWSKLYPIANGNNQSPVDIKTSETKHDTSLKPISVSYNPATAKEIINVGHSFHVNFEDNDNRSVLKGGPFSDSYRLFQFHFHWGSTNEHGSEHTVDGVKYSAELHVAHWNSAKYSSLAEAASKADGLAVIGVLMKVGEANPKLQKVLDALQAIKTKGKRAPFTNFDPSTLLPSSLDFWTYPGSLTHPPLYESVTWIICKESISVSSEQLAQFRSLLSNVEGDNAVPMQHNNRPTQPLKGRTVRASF

The structures appear in SMILES notation.

Description for Carbonic anhydrase 9: Inhibition of human recombinant carbonic anhydrase 9-mediated CO2 hydration preincubated for 15 mins by stopped-flow assay

For `Oc1ccccc1/C=N/CCCCCC/N=C/c1ccccc1O`, the Ki was 0.43 µM on Carbonic anhydrase 12, 4.35 µM on Carbonic anhydrase 9, 3.6 µM at Carbonic anhydrase 2 and more than 100 µM on Carbonic anhydrase 1.

In the case of `Oc1ccccc1CNCCCNCc1ccccc1O`, the Ki was 0.04 µM at Carbonic anhydrase 12, 3.37 µM on Carbonic anhydrase 9, 0.39 µM on Carbonic anhydrase 2 and more than 100 µM at Carbonic anhydrase 1.

As to `Oc1ccccc1/C=N/c1ccccc1/N=C/c1ccccc1O`, the inhibition constant (Ki) is 2.45 µM at Carbonic anhydrase 9 and more than 100 µM on Carbonic anhydrase 1.

For `Oc1ccccc1CNCCNCc1ccccc1O`, the Ki on Carbonic anhydrase 9 and at Carbonic anhydrase 1 was more than 100 µM in each case.

Consider `O=[N+]([O-])c1ccccc1/C=N/CCCCCC/N=C/c1ccccc1[N+](=O)[O-]`, for which the inhibition constant Ki on Carbonic anhydrase 9, at Carbonic anhydrase 2 and at Carbonic anhydrase 1 was more than 100 µM throughout.

For the compound `Oc1ccccc1CNCCCCNCc1ccccc1O`, the results for the Ki at Carbonic anhydrase 9 and at Carbonic anhydrase 1 were 4.37 µM and more than 100 µM, respectively.

As for `Oc1ccccc1CNCCCCCNCc1ccccc1O`, the values for the inhibitory constant (Ki) on Carbonic anhydrase 9 and at Carbonic anhydrase 1 were 4.19 µM and more than 100 µM, respectively.

As to `Oc1ccccc1CNCCCCCCNCc1ccccc1O`, the figures for the Ki at Carbonic anhydrase 9 and at Carbonic anhydrase 1 were 2.51 µM and more than 100 µM, respectively.

For the compound `Oc1ccccc1CNc1ccccc1NCc1ccccc1O`, the Ki was 0.22 µM at Carbonic anhydrase 9 and more than 100 µM at Carbonic anhydrase 1.

With `Oc1ccccc1/C=N/CCCCC/N=C/c1ccccc1O`, the Ki is 4.47 µM on Carbonic anhydrase 9 and more than 100 µM at Carbonic anhydrase 1.

On to `COc1cccc(/C=N/CC/N=C/c2cccc(OC)c2O)c1O`, for which the inhibition constant (Ki) at Carbonic anhydrase 9, on Carbonic anhydrase 2 and at Carbonic anhydrase 1 was more than 100 µM throughout.

As for `Oc1ccccc1/C=N/CCC/N=C/c1ccccc1O`, the Ki at Carbonic anhydrase 9 was 15.7 µM; on Carbonic anhydrase 1 it was more than 100 µM.

For `Oc1ccccc1/C=N/CCCC/N=C/c1ccccc1O`, the Ki at Carbonic anhydrase 1 was more than 100 µM.

For the compound `Oc1ccccc1/C=N/CC/N=C/c1ccccc1O`, the Ki on Carbonic anhydrase 12 is 0.28 µM; at Carbonic anhydrase 9, more than 100 µM; at Carbonic anhydrase 2, 1.72 µM; on Carbonic anhydrase 1, more than 100 µM.
